{"source": "patent US12263155B2", "about": "“Combinations of monoamine oxidase inhibitors and serotonin receptor agonists and their therapeutic use” (Remedi, Inc., priority 2022, dated 2025)", "key": {"rat brain MAO-A": {"molecular_target": "T1, rat brain MAO-A (Rattus norvegicus, UniProt P21396)", "T1 construct": "prepared from brain homogenates of male Sprague-Dawley rats, served as the source of MAO-A enzymatic activity; from tissue", "T1 sequence (P21396 1-526)": "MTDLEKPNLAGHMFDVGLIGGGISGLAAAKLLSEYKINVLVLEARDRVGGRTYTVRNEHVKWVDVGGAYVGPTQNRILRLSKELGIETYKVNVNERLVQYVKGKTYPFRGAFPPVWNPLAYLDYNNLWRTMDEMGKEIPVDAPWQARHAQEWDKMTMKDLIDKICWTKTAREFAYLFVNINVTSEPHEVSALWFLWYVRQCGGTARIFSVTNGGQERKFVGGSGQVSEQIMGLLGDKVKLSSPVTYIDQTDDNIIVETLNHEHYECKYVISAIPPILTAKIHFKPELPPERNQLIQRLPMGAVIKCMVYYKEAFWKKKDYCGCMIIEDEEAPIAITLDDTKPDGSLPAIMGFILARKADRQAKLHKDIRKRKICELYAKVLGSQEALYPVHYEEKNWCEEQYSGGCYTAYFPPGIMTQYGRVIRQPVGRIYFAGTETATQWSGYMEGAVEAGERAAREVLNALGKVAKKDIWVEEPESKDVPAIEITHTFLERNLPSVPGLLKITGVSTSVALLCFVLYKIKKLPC", "test": "In vitro inhibition of rat brain MAO-A", "format": "biochemical", "description": "(§1) Methods: The soluble extract of the mitochondrial enriched fraction (P2 pellet), which was prepared from brain homogenates of male Sprague-Dawley rats, served as the source of MAO-A enzymatic activity. The P2 fraction was prepared and was stored frozen until being thawed for use on the day of assay. Final concentrations of 50 μM [^14C]-serotonin (5-HT) and 10 μM [^14C]-phenylethylamine (PEA) were employed as specific substrates for MAO-A and MAO-B, respectively. Test compound inhibition was based on competition for oxidation of these radio-labeled substrates. MAO-A assay specificity was enhanced by inclusion of 0.1 μM deprenyl to prevent substrate oxidation by MAO-B. Likewise, MAO-B assays included 0.1 μM clorgyline to block MAO-A activity. […] Inhibition of enzymatic activities was expressed as IC50 and as the Ki, which was calculated using the Cheng-Prusoff equation."}, "rat brain MAO-B": {"molecular_target": "T2, rat brain MAO-B (Rattus norvegicus, UniProt P19643)", "T2 construct": "from tissue; host or cells: rat brain", "T2 sequence (P19643 1-520)": "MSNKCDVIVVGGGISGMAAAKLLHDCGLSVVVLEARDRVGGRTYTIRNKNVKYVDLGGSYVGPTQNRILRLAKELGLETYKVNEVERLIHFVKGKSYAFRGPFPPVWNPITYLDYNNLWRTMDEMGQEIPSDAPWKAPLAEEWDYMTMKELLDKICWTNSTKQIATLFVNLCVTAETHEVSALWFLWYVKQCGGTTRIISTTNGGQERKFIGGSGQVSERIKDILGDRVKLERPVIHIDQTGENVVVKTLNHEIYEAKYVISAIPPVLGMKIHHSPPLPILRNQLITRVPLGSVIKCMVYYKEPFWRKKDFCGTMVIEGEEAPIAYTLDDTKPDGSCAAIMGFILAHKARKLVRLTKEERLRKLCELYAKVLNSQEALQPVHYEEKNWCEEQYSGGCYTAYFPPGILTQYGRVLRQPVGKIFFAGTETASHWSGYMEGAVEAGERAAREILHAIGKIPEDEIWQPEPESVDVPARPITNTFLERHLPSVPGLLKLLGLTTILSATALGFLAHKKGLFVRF", "test": "In vitro inhibition of rat brain MAO-B", "format": "biochemical", "details": "10 μM [14C]-PEA, all concentrations tested", "description": "as §1"}, "MAO-A": {"molecular_target": "T3, MAO-A (Homo sapiens, UniProt P21397)", "T3 sequence (P21397 1-527)": "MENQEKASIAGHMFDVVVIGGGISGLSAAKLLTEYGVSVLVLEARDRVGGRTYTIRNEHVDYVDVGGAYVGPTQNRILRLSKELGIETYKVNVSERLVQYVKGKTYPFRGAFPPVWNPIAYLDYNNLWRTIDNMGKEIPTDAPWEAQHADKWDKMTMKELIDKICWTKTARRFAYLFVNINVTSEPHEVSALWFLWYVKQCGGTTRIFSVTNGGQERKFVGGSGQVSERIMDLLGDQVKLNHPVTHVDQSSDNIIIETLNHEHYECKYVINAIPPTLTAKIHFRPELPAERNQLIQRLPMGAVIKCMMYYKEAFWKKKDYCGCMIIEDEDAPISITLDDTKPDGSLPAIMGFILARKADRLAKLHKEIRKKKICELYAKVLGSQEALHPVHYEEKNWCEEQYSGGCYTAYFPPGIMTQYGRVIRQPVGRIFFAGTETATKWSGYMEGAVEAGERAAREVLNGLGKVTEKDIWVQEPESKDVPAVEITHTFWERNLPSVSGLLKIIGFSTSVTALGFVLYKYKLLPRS", "test": "Phase I 14-day twice-daily pharmacodynamics", "format": "in vivo", "set-up": "administered for 14 days compared to placebo in healthy male and female volunteers; from tissue; host or cells: in vivo, healthy volunteers", "details": "repeated administration 10, 20, 40 mg twice daily", "quoted_text": "Methods: The study was a Phase I, single-center, randomized, parallel-group, multiple-dose, placebo-controlled, pharmacodynamic, pharmacokinetic and safety study in healthy volunteers. To obtain 24 enrolled subjects, screening procedures and inclusion/exclusion criteria were evaluated for 54 subjects during a variable screening period of up to 28 days."}}}
{"smiles": "O=S1(=O)c2ccc(F)cc2Oc2cc(OCC(F)(F)F)ccc21", "note": "[CX157, 3-fluoro-7(2,2,2-trifluorethoxy)phenoxathiine-10,10-dioxide]", "values": [{"measurement": "Ki for CX157/Ki for RO-41-1049", "setting": "rat brain MAO-A; Brain MAO-A", "result": 0.006}, {"measurement": "Ki fold lower than reference compound RO 41-1049", "setting": "rat brain MAO-A; rat brain MAO-A", "result": "> 10", "unit": "fold"}, {"measurement": "IC50", "setting": "rat brain MAO-A; rat brain P2 extract, 50 μM [14C]-5-HT", "result": 0.09, "unit": "nM"}, {"measurement": "Ki", "setting": "rat brain MAO-A; rat brain, Cheng-Prusoff", "result": 0.09, "unit": "nM"}, {"measurement": "inhibition of rat brain MAO-B", "setting": "rat brain MAO-B", "result": "did not inhibit"}, {"measurement": "pharmacodynamic activity: MAO-A activity", "setting": "MAO-A", "result": "inhibits MAO-A activity"}]}
